Reference: publication doi:10.1101/2024.10.13.618094 (bioRxiv, 2024)
“Also recorded” adds a separate entry of the source. Blank lines part the entries; values can stand above or below the molecule they belong to. *1 amine or outer side, *2 acyl side, *3 side chain or, on linkers, in order; H or OH if unused. Where a SMILES comes first, the peptide text is derived from it. [ ]: non-standard residue; d: D form. The star is where a group is joined. Pheol(OBn) = c1ccc(COC[C@H](Cc2ccccc2)N*)cc1; Dnp = O=[N+]([O-])c1ccc(*)c([N+](=O)[O-])c1; NH(4-phenylbutyl) = c1ccc(CCCCN*)cc1; Mca = COc1ccc2c(CC(=O)*)cc(=O)oc2c1; X1 = C[C@H](N[*:1])C(=O)C(=O)[*:2]

Experiments:
[1] = tested on: purified wild-type RHBDL4; test: TAMRA-FP active-site probe competition on purified RHBDL4; type: binding, human; settings: purified RHBDL4, SDS-PAGE, Cy3 fluorescence; compared with inactive RHBDL4-S144A control
From the text: Inhibition of recombinant purified RHBDL4 proteolytic activity by N-substituted peptidyl α-ketoamides. (A) Proteolytic rates of the fluorescent substrate IQ6 by RHBDL4 in the presence of increasing concentrations of the general protease inhibitors, Dicyclocoumarin (DCI), tosyl-phenylalanine-chloromethyl ketone (TPCK) and 4-(2-aminoethyl) benzenesulfonyl fluoride (AEBSF). […] (D) Representative inhibition curve derived from measuring rates of RHBDL4 proteolysis of the fluorescent substrate IQ6 with increasing concentrations of compound 1a. (E) Same as (D), except inhibition curve was derived from using increasing concentrations of compound 1b. […] Reactions were quenched with 1×Laemmli buffer and loaded on 12% SDS-PAGE gel. Post-transfer membranes were visualized using a fluorescence Cy3 filter and by western blotting using an α-RHBDL4 antibody. For (A), (D), and (E), all inhibitors were pre-incubated with RHBDL4 for 1hr and allowed to react with the IQ6 substrate for 2 h. Assays were performed in triplicate, and data points represent the average ± standard deviation.
In vitro inhibition of RHBDL4 activity with TMED7-derived peptidyl α-ketoamides. […] (B) Representative inhibition curve derived from measuring rates of RHBDL4 proteolysis of the fluorescent substrate IQ6 with increasing concentrations of compound 3. (C) Same as (B), except inhibition curve was derived from using increasing concentrations of compound 4. […] Reactions were quenched with 1×Laemmli buffer and loaded on 12% SDS-PAGE gel. Post-transfer membranes were visualized using a fluorescence Cy3 filter and by western blotting using an α-RHBDL4 antibody. […] For (B) and (C), all inhibitors were pre-incubated with RHBDL4 for 1hr and allowed to react with the IQ6 substrate for 2 h. All assays were performed in triplicate, and data points represent the average ± standard deviation.

[2] = tested on: RHBDL4-GFP in ER-enriched microsomes from HEK293T cells; test: TAMRA-FP competition label assay in ER-enriched microsomes; type: binding, human; settings: 100 μM compound, preincubated 1 h at 37°C; 500 nM TAMRA-FP for 2 h at 37°C; immunoprecipitation, Cy3 fluorescence
Procedure: We aimed to investigate our RHBDL4 inhibitors in a more physiological context. […] To achieve this, we prepared ER-enriched microsomes from HEK293T cells transfected with RHBDL4-GFP, then pre-incubated microsomes with 100 μM of each compound, before TAMRA-FP was added to the microsomal fractions. RHBDL4-GFP was immunoprecipitated and visualized for TAMRA-FP fluorescence signal and western blotting. […] We surmise that the peptidyl α-ketoamides may have low membrane penetrability, making them weak inhibitors in microsome and cell-based assays. Further refinement is needed to design peptidyl α-ketoamides that effectively penetrate lipids and inhibit RHBDL4 activity in its native context.
Figure 6. RHBDL4 inhibition studies in ER-enriched microsomes ER-enriched microsomes were preincubated with 100 μM of compounds or DMSO vehicle control followed by addition of 500 nM of TAMRA-FP serine hydrolase probe. […] TAMRA-FP labeling was analyzed via Cy3 filter followed by western blotting using α-GFP antibody.
ER-enriched microsomes were obtained by hypotonic swelling and centrifugation from Hek293T cells 24 h after transfection. […] TAMRA-FP-labelling was analyzed in the wet gel with a green light source (535 nm) and a Cy3 filter by detecting fluorescence emission using ImageQuant 800 Fluor CCD imager (Cytiva) followed by western blotting using a α-GFP antibody (Roche).

RHBDL4 [3] = test: 1.5 μM of wild-type RHBDL4 (purified recombinant); settings: human, room temperature, up to 4 h
recombinant human RHBDL4 = target: T1, recombinant human RHBDL4 (Homo sapiens, UniProt Q8TEB9); test: FRET-based cleavage assay with fluorogenic substrates (Michaelis–Menten kinetics); type: biochemical; settings: pH 8, 37°C, 0.1% DDM, Michaelis–Menten fit, triplicate, average ± SD
T1 construct: The entire RHBDL4 and RHBDL4-S144A cDNAs were subcloned into the pcDNA3.1 vector; 6xHis (C, cleaved yes); made in house; host or cells: Freestyle 293-F cells (transient transfection, pcDNA3.1-HisA)
T1 sequence (Q8TEB9 1-315): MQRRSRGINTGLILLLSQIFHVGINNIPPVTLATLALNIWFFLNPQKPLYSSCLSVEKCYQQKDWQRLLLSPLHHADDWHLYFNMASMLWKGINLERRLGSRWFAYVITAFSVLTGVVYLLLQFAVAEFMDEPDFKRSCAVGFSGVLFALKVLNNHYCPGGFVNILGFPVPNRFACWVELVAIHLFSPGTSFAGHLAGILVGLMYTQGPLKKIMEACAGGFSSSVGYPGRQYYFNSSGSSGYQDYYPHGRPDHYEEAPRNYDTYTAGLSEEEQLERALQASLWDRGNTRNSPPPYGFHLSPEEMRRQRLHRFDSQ
Procedure: We employed a FRET-based assay to determine the activity of RHBDL4. The RHBDL4 proteolytic activity was tested against a suite of fluorescent, internally quenched (IQ) substrates that have been previously used to test the activity of rhomboid protease PARL (Fig. S2A)([Lysyk et al. 2021]). These substrates consist of 7–10-mer peptide sequences flanked by the fluorescent donor group 7-methoxycourmarin (mc) on the N terminus and quencher acceptor group dinitrophenol (dnp) on the C terminus (Fig. 2A) ([Arutyunova et al. 2018]). In general, the donor and acceptor are in proximity within the fluorogenic peptides and show low fluorescence due to internal quenching. Hydrolysis of the peptide bond between the donor and the acceptor leads to physical separation of the FRET pairs and increase in fluorescence, which would be proportional to RHBDL4 protease activity (Fig. 2A).
The reaction setup in our FRET assay enabled the direct determination of Michaelis–Menten kinetic parameters Km and kcat for the cleavage of IQ6, IQ41, and IQ46 by RHBDL4. Our fluorescence reading data were converted to μM/h using the standard calibration curve for all three IQ substrates, and the correction factor for the inner filter effect was applied. We confirmed that purified RHBDL4 followed Michaelis–Menten kinetics with KmIQ6=10.73±2μM , KmIQ41=5.63±2μM , and KmIQ46=7.19±1μM and kcatIQ6=7.33±0.6h^−1 , kcatIQ41=2.41±0.6h^−1 , and kcatIQ46=3.62±0.08h^−1 (Fig. 2B and S2B).
The enzymatic assay was performed as previously described (Arutyunova et al., 2014, [Arutyunova et al., 2018]). […] The FRET-based cleavage assay was conducted in a fluorescence multi-well plate reader (SynergyMx, BioTek, VT, USA). Upon excitation at 320 nm, the emission intensity at 400 nm was recorded for 2 h at minimal intervals under shaking conditions and plotted using the GraphPad PRISM software. The initial velocities were defined as the slopes of the curve of the generated product as a function of time. The plots of the generated product against the corresponding substrate concentration were fitted with the Michaelis–Menten equation. Catalytic parameters were extrapolated using GraphPad PRISM. […] The samples were desalted using C18 tips (Rainin, Columbus, OH, USA), eluted in 80% acetonitrile, and dried down in a vacuum centrifuge prior to mass spectrometry analysis.
All the calculations for Km, Vmax, and Kcat for RHBDL4 and its mutants were performed using GraphPad PRISM.

RHBDL4 [4] = test: 1.5 μM of wild-type RHBDL4 in activity buffer containing 20 mM citrate phosphate pH 8.0, 150 mM NaCl, 20% (v/v) glycerol, and 0.1% (w/v) DDM; settings: human, 37°C, up to 2 h
[5] = target: T2, rhomboid protease RHBDL4, wild type (recombinant, purified) (human) (UniProt Q8TEB9)
T2 sequence: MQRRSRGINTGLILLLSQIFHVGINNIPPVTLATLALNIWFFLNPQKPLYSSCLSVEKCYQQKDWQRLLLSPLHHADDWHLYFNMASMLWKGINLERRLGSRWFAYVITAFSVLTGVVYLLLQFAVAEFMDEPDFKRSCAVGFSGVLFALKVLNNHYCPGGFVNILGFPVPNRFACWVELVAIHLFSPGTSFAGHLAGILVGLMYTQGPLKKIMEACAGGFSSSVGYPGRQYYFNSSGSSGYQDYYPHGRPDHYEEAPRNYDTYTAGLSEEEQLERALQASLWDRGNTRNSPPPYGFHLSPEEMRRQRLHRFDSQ

[6] = target: T3, rhomboid protease RHBDL4, wild type (recombinant, purified) (human, UniProt Q8TEB9 1-315); test: cell-based or functional assay
T3 sequence (looked up): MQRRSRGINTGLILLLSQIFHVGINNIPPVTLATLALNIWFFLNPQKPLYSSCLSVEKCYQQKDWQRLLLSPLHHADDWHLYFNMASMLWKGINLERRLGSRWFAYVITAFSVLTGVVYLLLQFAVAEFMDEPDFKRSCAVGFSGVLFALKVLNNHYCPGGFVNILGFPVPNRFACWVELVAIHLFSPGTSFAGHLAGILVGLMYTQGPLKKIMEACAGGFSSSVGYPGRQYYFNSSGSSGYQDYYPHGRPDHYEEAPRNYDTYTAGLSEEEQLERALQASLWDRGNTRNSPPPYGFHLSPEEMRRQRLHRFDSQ

Effect on TAMRA-FP labeling of RHBDL4-GFP in microsomes [2]: reduced
Molecule: CSCC[C@H](NC(=O)[C@H](CCC(N)=O)NC(C)=O)C(=O)N[C@@H](CCC(=O)O)C(=O)N[C@@H](CO)C(=O)N[C@@H](C)C(=O)C(=O)NCCCCc1ccccc1 [Compound 3] (Ac-QMES[X1]-{NH(4-phenylbutyl)})
Competition with TAMRA-FP probe for the RHBDL4 catalytic site (fluorescent signal) [1]: reduction in overall fluorescent signal

Molecule: CC(=O)N[C@H](C(=O)N[C@@H](CCCNC(=N)N)C(=O)NC(Cc1c[nH]cn1)C(=O)N[C@@H](C)C(=O)C(=O)N[C@H](COCc1ccccc1)Cc1ccccc1)C(C)C (some centres unmarked) [Compound 1a]
Competition with TAMRA-FP probe for the RHBDL4 catalytic site (fluorescent signal) [1]: significant reduction of fluorescent signal

Molecule: mca-RPPGFSAFK(dnp)
cleaved bond (RHBDL4 [3]): Ala-Phe, 4 h; also recorded: Ser-Ala, 4 h

Km (recombinant human RHBDL4): 5.63 ± 2 µM
Molecule: mca-FVTKGK(dnp) [IQ41, fluorescent internally quenched substrate mca-FVTKGK(dnp)]

Km (recombinant human RHBDL4): 7.19 ± 1 µM
Molecule: mca-FLVRGK(dnp) [IQ46, fluorescent internally quenched substrate mca-FLVRGK(dnp)]

Molecule: mca-AVFLSAVAG(dnp)
not cleaved (RHBDL4 [4]): did not observe any RHBDL4-catalyzed activity

IC50 of inhibition of RHBDL4 proteolysis of the fluorescent substrate IQ6 (in vitro FRET-based cleavage assay; 1 h pre-incubation, 2 h reaction) [5]: 6.1 µM
Molecule: peptidyl α-ketoamide compound 1b (Ac-VRHA-CONH-CH(Bn)-CH2OBn) (peptide)

Km (recombinant human RHBDL4): 10.7 ± 2 µM
Molecule: Mca-Arg-Pro-Pro-Gly-Phe-Ser-Ala-Phe-Lys (DNP)-OH (Mca-RPPGFSAFK(Dnp)-OH; SMILES COc1ccc2c(CC(=O)N[C@@H](CCCNC(=N)N)C(=O)N3CCC[C@H]3C(=O)N3CCC[C@H]3C(=O)NCC(=O)N[C@@H](Cc3ccccc3)C(=O)N[C@@H](CO)C(=O)N[C@@H](C)C(=O)N[C@@H](Cc3ccccc3)C(=O)N[C@@H](CCCCNc3ccc([N+](=O)[O-])cc3[N+](=O)[O-])C(=O)O)cc(=O)oc2c1) [IQ6, fluorescent internally quenched substrate mca-…(dnp)]

IC50 of inhibition of RHBDL4 proteolysis of the fluorescent substrate IQ6 (in vitro FRET-based cleavage assay; 1 h pre-incubation, 2 h reaction) [5]: 2.31 µM
Molecule: peptidyl α-ketoamide compound 1a (Ac-VRHA-CONH-CH(Bn)-CH2OBn) (peptide)

Effect on TAMRA-FP labeling of RHBDL4-GFP in microsomes [2]: reduced
Molecule: CSCC[C@H](NC(=O)[C@H](CCC(N)=O)NC(C)=O)C(=O)N[C@@H](CCC(=O)O)C(=O)N[C@@H](CO)C(=O)N[C@@H](C)C(=O)C(=O)N[C@H](COCc1ccccc1)Cc1ccccc1 [Compound 4] (Ac-QMES[X1]-{Pheol(OBn)})
Competition with TAMRA-FP probe for the RHBDL4 catalytic site (fluorescent signal) [1]: reduction in overall fluorescent signal

Molecule: mca-RPKPYAvWMK(dnp)
not cleaved (RHBDL4 [4]): did not observe any RHBDL4-catalyzed activity

Km (recombinant human RHBDL4): 3.09 ± 1 µM
Molecule: Ac-QMESA-4mc [KSp207, TMED7-derived fluorescent substrate Ac-QMESA-4mc]

IC50 of inhibition of RHBDL4 proteolysis of the fluorescent substrate IQ6 (in vitro FRET-based cleavage assay; 1 h pre-incubation, 2 h reaction) [6]: 54 nM
Molecule: Ac-QMESA-{CONH‑(CH2)4‑Ph} (also: C-terminal α-ketoamide) [peptidyl α-ketoamide compound 3 (Ac-QMESA-CONH-(CH2)4-Ph)]

IC50 of inhibition of RHBDL4 proteolysis of the fluorescent substrate IQ6 (in vitro FRET-based cleavage assay; 1 h pre-incubation, 2 h reaction) [6]: 85 nM
Molecule: Ac-QMESA-{CONH‑CH(Bn)‑CH2OBn} (also: C-terminal α-ketoamide) [peptidyl α-ketoamide compound 4 (Ac-QMESA-CONH-CH(Bn)-CH2OBn)]

IC50 of inhibition of RHBDL4 activity (in vitro FRET-based cleavage assay) [5]: 3.4 µM
Molecule: Ac-PGFSA-{α‑ketoamide ‑CONH‑(CH2)4‑Ph} [peptidyl α-ketoamide compound 2 (Ac-PGFSA-CONH-(CH2)4-Ph)]
